Read-outs that look alike come from different tables or passages of the source.
Assay type: in vivo, human
Details: for Fecal 3-Hydroxybutyrate / Fecal Acetate / Fecal Alanine / Fecal Butyrate / Fecal Cadaverine / Fecal Ethanol / Fecal Formate / Fecal Fumarate / Fecal Glucose / Fecal Glutamate / Fecal Glycerol / Fecal Glycine / Fecal Hypoxanthine / Fecal Isobutyrate / Fecal Isoleucine / Fecal Isovalerate / Fecal Lactate / Fecal Leucine / Fecal Lysine / Fecal Methionine / Fecal Methionine-sulfoxide / Fecal N-Acetylglucosamine / Fecal Nicotinate / Fecal Phenylacetate / Fecal Phenylalanine / Fecal Proline / Fecal Propionate / Fecal Putrescine / Fecal Ribose / Fecal Succinate / Fecal Threonine / Fecal Total AA / Fecal Total BCAAs / Fecal Total SCFA / Fecal Tyrosine / Fecal Uracil / Fecal Urocanate / Fecal Valerate / Fecal Valine / Fecal Xylose / Fecal p-Cresol: GLU condition, mean ± SD
Excerpt: Stool specimens were collected at four time points throughout the entire study protocol. The first two samples were collected before and after the first supplementation period while the final two samples were collected before and after the second supplementation period. All stool specimens were collected no more than 24-hours prior to that study participant being scheduled to complete their laboratory visit. All samples were immediately frozen after sample collection by the study participants. Participants were instructed to keep their samples in the freezer and to remove them at the latest possible time to minimize thawing during transfer to the laboratory for storage. Participants were provided with all materials necessary to collect, store, and transport the stool specimen including commode fecal collection system, fecal collection tubes with screw top lids and scoops attached, disposable gloves, freezer packs, specimen labels, and transfer containers. Participants were instructed to raise the toilet seat and place the stool collection frame on the back of the toilet bowl and then lower the toilet seat down and place collection bowl in frame. Participants then sat on the toilet and collected a stool sample into the container. Participants were instructed, if possible, to not urinate into the collection container. Participants then extracted a representative stool sample and filled each of the two provided sample collection tubes. Tubes were then secured, labeled, and frozen. All remaining stool was discarded into the toilet and flushed. Upon arrival in the laboratory each sample was immediately stored at −80° C.
A Fecal Metabolome Analysis was further conducted. Samples were manually homogenized with a sterile microspatula, and approximately 250 mg of fecal material was weighed and extracted using 1.5 mL of ice-cold Dulbecco's phosphate buffered saline (DPBS, 1×, pH 7.4). After extraction, samples were centrifuged, and the pellet was dried using a Labconco FreeZone 4.5 L Freeze Dry System to determine fecal dry weight. The supernatant was sequentially filtered through a 0.22 μm pore-size syringe filter (Millex-GP syringe filter, Millipore, Billerica, Mass.) to remove microbes followed by a 3 kDa ultracentrifugal filter (Amicon ultracentrifugal filter, Millipore, Billerica, Mass.) to remove any excess proteins. To 207 […], 23 […] (5 mM DSS-d6 (trimethylsilylpropanesulfonate) containing 0.2% NaN3 in 99.8% D20 was added to aid in quantification of metabolites. The pH of each sample was adjusted to 6.8±0.1 through addition of small amounts of NaOH or HCl. Samples were transferred to 3 mm Bruker NMR tubes (Bruker, Brillerica, Mass.) and stored at 4° C. until spectral acquisition. Nuclear magnetic resonance (NMR) spectra were acquired using a Bruker Avance 600 MHz NMR spectrometer equipped with a SampleJet autosampler (Bruker BioSpin, Germany) at 298 K using the NOESY 1H presaturation experiment (‘noesypr1d’). Data were acquired with a spectral width of 12 ppm, a 2.5-second acquisition time, a relaxation delay of 2.5 seconds, and a 100-millisecond mixing time using 32 transients and 8 dummy scans. Water saturation was applied during the relaxation delay and mixing time. Each spectrum was Fourier Transformed with zero filling to 128,000 data points, and the resulting Free Induction Decay (FID) was transformed with an exponential apodization function corresponding to a line-broadening of 0.5 Hz. Spectra were subsequently phased and baseline corrected using Chenomx NMRSuite Processor v8.3 (Chenomx Inc., Edmonton, Canada). Metabolites were identified and quantified based on the known concentration of the internal standard, using Chenomx NMRSuite Profiler v8.3 based on the established method of targeted profiling.

[1] = Post 21 days, 3 x 1,000 mg/day oral

Cl.N[C@H]1C(O)O[C@H](CO)[C@@H](O)[C@@H]1O (some centres unmarked) [GLU, glucosamine hydrochloride]
Fecal 3-Hydroxybutyrate [1]: 76 ± 35 | Fecal Acetate [1]: 43,680 ± 11,351 | Fecal Alanine [1]: 2228 ± 721 | Fecal Butyrate [1]: 13,538 ± 6558 | Fecal Cadaverine [1]: 165 ± 56 | Fecal Ethanol [1]: 272 ± 187 | Fecal Formate [1]: 403 ± 299 | Fecal Fumarate [1]: 218 ± 115 | Fecal Glucose [1]: 3334 ± 2753 | Fecal Glutamate [1]: 6773 ± 2223 | Fecal Glycerol [1]: 6397 ± 3575 | Fecal Glycine [1]: 965 ± 399 | Fecal Hypoxanthine [1]: 325 ± 143 | Fecal Isobutyrate [1]: 1956 ± 1334 | Fecal Isoleucine [1]: 777 ± 388 | Fecal Isovalerate [1]: 1712 ± 1304 | Fecal Lactate [1]: 172 ± 396 | Fecal Leucine [1]: 1094 ± 496 | Fecal Lysine [1]: 1454 ± 554 | Fecal Methionine [1]: 352 ± 210 | Fecal Methionine-sulfoxide [1]: 202 ± 149 | Fecal N-Acetylglucosamine [1]: 187 ± 152 | Fecal Nicotinate [1]: 271 ± 106 | Fecal Phenylacetate [1]: 999 ± 786 | Fecal Phenylalanine [1]: 544 ± 208 | Fecal Proline [1]: 654 ± 326 | Fecal Propionate [1]: 12,663 ± 5766 | Fecal Putrescine [1]: 115 ± 61 | Fecal Ribose [1]: 1332 ± 533 | Fecal Succinate [1]: 758 ± 430 | Fecal Threonine [1]: 659 ± 252 | Fecal Total AA [1]: 17,208 ± 5190 | Fecal Total BCAAs [1]: 2873 ± 1312 | Fecal Total SCFA [1]: 76,527 ± 25,492 | Fecal Tyrosine [1]: 707 ± 273 | Fecal Uracil [1]: 684 ± 287 | Fecal Urocanate [1]: 85 ± 48 | Fecal Valerate [1]: 2574 ± 1519 | Fecal Valine [1]: 1003 ± 451 | Fecal Xylose [1]: 702 ± 545 | Fecal p-Cresol [1]: 551 ± 537 | Fecal 3-Hydroxybutyrate (Pre (baseline)): 89 ± 62 | Fecal Acetate (Pre (baseline)): 40,675 ± 12,876 | Fecal Alanine (Pre (baseline)): 2667 ± 1134 | Fecal Butyrate (Pre (baseline)): 11,370 ± 5781 | Fecal Cadaverine (Pre (baseline)): 170 ± 52 | Fecal Ethanol (Pre (baseline)): 169 ± 98 | Fecal Formate (Pre (baseline)): 298 ± 166 | Fecal Fumarate (Pre (baseline)): 225 ± 151 | Fecal Glucose (Pre (baseline)): 2229 ± 2054 | Fecal Glutamate (Pre (baseline)): 8882 ± 3831 | Fecal Glycerol (Pre (baseline)): 7458 ± 7347 | Fecal Glycine (Pre (baseline)): 1207 ± 514 | Fecal Hypoxanthine (Pre (baseline)): 414 ± 190 | Fecal Isobutyrate (Pre (baseline)): 2097 ± 887 | Fecal Isoleucine (Pre (baseline)): 1029 ± 462 | Fecal Isovalerate (Pre (baseline)): 1885 ± 886 | Fecal Lactate (Pre (baseline)): 60 ± 49 | Fecal Leucine (Pre (baseline)): 1422 ± 622 | Fecal Lysine (Pre (baseline)): 1834 ± 815 | Fecal Methionine (Pre (baseline)): 424 ± 290 | Fecal Methionine-sulfoxide (Pre (baseline)): 258 ± 191 | Fecal N-Acetylglucosamine (Pre (baseline)): 249 ± 147 | Fecal Nicotinate (Pre (baseline)): 327 ± 162 | Fecal Phenylacetate (Pre (baseline)): 1095 ± 511 | Fecal Phenylalanine (Pre (baseline)): 629 ± 280 | Fecal Proline (Pre (baseline)): 687 ± 280 | Fecal Propionate (Pre (baseline)): 12,596 ± 4145 | Fecal Putrescine (Pre (baseline)): 92 ± 59 | Fecal Ribose (Pre (baseline)): 1428 ± 760 | Fecal Succinate (Pre (baseline)): 635 ± 289 | Fecal Threonine (Pre (baseline)): 831 ± 355 | Fecal Total AA (Pre (baseline)): 21,838 ± 8104 | Fecal Total BCAAs (Pre (baseline)): 3802 ± 1674 | Fecal Total SCFA (Pre (baseline)): 71,612 ± 22,891 | Fecal Tyrosine (Pre (baseline)): 874 ± 394 | Fecal Uracil (Pre (baseline)): 922 ± 352 | Fecal Urocanate (Pre (baseline)): 104 ± 57 | Fecal Valerate (Pre (baseline)): 2691 ± 1314 | Fecal Valine (Pre (baseline)): 1351 ± 610 | Fecal Xylose (Pre (baseline)): 441 ± 420 | Fecal p-Cresol (Pre (baseline)): 597 ± 330 | Fecal 3-Hydroxybutyrate, % (PLA vs. GLU, between-group): 4.3% | Fecal Acetate, % (PLA vs. GLU, between-group): 0.5% | Fecal Alanine, % (PLA vs. GLU, between-group): −33.4% | Fecal Butyrate, % (PLA vs. GLU, between-group): 14.3% | Fecal Cadaverine, % (PLA vs. GLU, between-group): −29.1% | Fecal Ethanol, % (PLA vs. GLU, between-group): 123.7% | Fecal Formate, % (PLA vs. GLU, between-group): 30.7% | Fecal Fumarate, % (PLA vs. GLU, between-group): −29.4% | Fecal Glucose, % (PLA vs. GLU, between-group): 61.4% | Fecal Glutamate, % (PLA vs. GLU, between-group): −30.7% | Fecal Glycerol, % (PLA vs. GLU, between-group): −33.0% | Fecal Glycine, % (PLA vs. GLU, between-group): −34.5% | Fecal Hypoxanthine, % (PLA vs. GLU, between-group): −27.1% | Fecal Isobutyrate, % (PLA vs. GLU, between-group): −38.6% | Fecal Isoleucine, % (PLA vs. GLU, between-group): −40.5% | Fecal Isovalerate, % (PLA vs. GLU, between-group): −18.9% | Fecal Lactate, % (PLA vs. GLU, between-group): 107.7% | Fecal Leucine, % (PLA vs. GLU, between-group): −28.4% | Fecal Lysine, % (PLA vs. GLU, between-group): −32.1% | Fecal Methionine, % (PLA vs. GLU, between-group): −23.7% | Fecal Methionine-sulfoxide, % (PLA vs. GLU, between-group): 37.4% | Fecal N-Acetylglucosamine, % (PLA vs. GLU, between-group): −34.9% | Fecal Nicotinate, % (PLA vs. GLU, between-group): −6.6% | Fecal Phenylacetate, % (PLA vs. GLU, between-group): −30.6% | Fecal Phenylalanine, % (PLA vs. GLU, between-group): −15.6% | Fecal Proline, % (PLA vs. GLU, between-group): −5.7% | Fecal Propionate, % (PLA vs. GLU, between-group): −10.0% | Fecal Putrescine, % (PLA vs. GLU, between-group): 5.0% | Fecal Ribose, % (PLA vs. GLU, between-group): −37.4% | Fecal Succinate, % (PLA vs. GLU, between-group): 8.0% | Fecal Threonine, % (PLA vs. GLU, between-group): −31.8% | Fecal Total AA, % (PLA vs. GLU, between-group): −31.0% | Fecal Total BCAAs, % (PLA vs. GLU, between-group): −36.5% | Fecal Total SCFA, % (PLA vs. GLU, between-group): −1.3% | Fecal Tyrosine, % (PLA vs. GLU, between-group): −30.5% | Fecal Uracil, % (PLA vs. GLU, between-group): −34.7% | Fecal Urocanate, % (PLA vs. GLU, between-group): −38.7% | Fecal Valerate, % (PLA vs. GLU, between-group): −36.0% | Fecal Valine, % (PLA vs. GLU, between-group): −42.4% | Fecal Xylose, % (PLA vs. GLU, between-group): 70.8% | Fecal p-Cresol, % (PLA vs. GLU, between-group): −27.7% | Fecal glutamate, isoleucine, leucine and valine content (compared to baseline, p<0.05): significantly reduced | Total amino acids, change (compared to baseline, p<0.05): −21% | Total branched-chain amino acid, change (compared to baseline, p<0.05): −24% | Fecal nucleotides (uracil) (compared to baseline, p=0.02): significantly reduced | Effect on individual or total short-chain fatty acids (p>0.05): no effect
